What was measured:
Type in all cases: cell-based, mouse
[1] = system: breast cancer cells (EO771, 4T1.2); test: Boyden chamber assay, cancer cell invasion (matrigel)
Experimental: (§1) FIGS. 11A-11C. Lactate-activated macrophage promotes cancer cell adhesion, migration and invasion via Gpr132. (FIG. 11A) Adherence assays. 4T1.2 cells were suspended in fibronectin ([…]) pre-coated plates with CM from spleen-derived macrophages (mf) that were treated with 4T1.2 CM or lactate (5 mM) with or without Gpr132 antibody (6 mg/ml) or normal IgG (6 mg/ml) for 10 min. The adhered cells were stained with crystal violet, dissolved in 1% Triton X-100 and measured by OD590. (FIGS. 11B-11C) Boyden chamber assay of cancer cell migration and invasion. 4T1.2 cells (B) or EO771 cells (FIG. 11C) were plated on the upper chamber inserts, with untreated (Control), 4T1.2 CM-activated or lactate-activated spleen-derived WT or Gpr132-KO macrophages plated in the lower chambers. For invasion assay, the inserts were pre-coated with 60 μl matrigel. After migration for 6 hrs (FIG. 11B) or invasion for 24 hrs (FIG. 11C), the migrated or invaded cells were stained with crystal violet and counted as cells per field of view under microscope (n=3-4); For (FIG. 11C), the first bar of each data set of the bar graphs represents the control mf, and the second bar represents Gpr132KO; *p<0.05; **p<0.01; ***p<0.005; ****p<0.001. Scale bar, 500 μm.
(§2) FIGS. 23A-23B. Cancer cell-derived lactate activates macrophages to promote cancer cell migration and invasion via Gpr132. (FIGS. 23A-23B) Boyden chamber assay. EO771 or 4T1.2 cells were cultured in the presence or absence of oxamic acid (90 mM) for 3 days. CM was harvested after the cells were cultured for another 24 hrs without oxamic acid. […] After migration for 6 hrs (FIG. 23A) or invasion for 24 hrs (FIG. 23B), the migrated or invaded cells were stained with crystal violet and counted as cells per field of view under microscope (n=3-4); for (FIG. 23A), the bars in each data set of the bar graph represent, from left to right, control, EO771, Oxamic acid, and Oxamic acid+Lactate; for (FIG. 23B), the bars in each data set of the bar graph represent, from left to right, control, 4T1.2CM, Oxamic acid, and Oxamic acid+Lactate; *p<0.05; ****p<0.001. […]

4T1.2 cells = test: adherence assay of breast cancer cells to fibronectin; details: macrophages activated by 4T1.2 CM or lactate (5 mM); vs untreated control macrophages
Experimental: as §1, with “Scale bar, 500 μm.” left out
Cancer cells were treated with the conditioned medium from indicated macrophage for 2 hrs. Adherence of treated breast cancer cells to fibronectin was evaluated as described.

Gpr132 = test: calcium mobilization assay in BMDMs; details: WT or Gpr132-KO BMDMs stimulated with 25 mM
Experimental: FIG. 27. […] WT or Gpr132-KO BMDMs were stimulated with 25 mM lactate (Left) or HCl (Right) (n=3).
To determine whether Gpr132 is required for lactate signaling in macrophages, a calcium mobilization assay was performed. […] First, lactate levels in the CM of distinct cancer cell lines were measured using a Vitros 250 chemistry analyzer. […] Second, the effects of blocking lactate production from EO771 and 4T1.2 cells by oxamic acid, an inhibitor of lactate dehydrogenase was tested.

[2] = system: breast cancer cells (4T1.2, EO771); test: Boyden chamber assay, cancer cell migration
Experimental: as §1
as §2, with “acid. As a rescue, CM of oxamic acid-treated EO771 or 4T1.2 cells was supplemented with exogenous lactate.” for “acid.”
Migration or invasion of breast cancer cells was examined using 24-well Boyden chambers (Corning, Corning, N.Y.) with transwell inserts of […] pore size, coated without (for migration) or with matrigel (for invasion) as previously reported. […] The migrated or invaded cells were fixed with methanol and stained with crystal violet (0.05%, sigma), and then counted as cells per field of view under microscope or measured as OD570 after crystal violet was dissolved.

[3] = exogenous lactate, WT macrophages

Question: For CC(O)C(=O)O (stereo not shown) [lactate], which “breast cancer cell invasion induced by activated macrophages, Gpr132 deletion” value ([1]; EO771 cells, 24 hrs, Gpr132-KO macrophages) is on record?
Answer: completely abrogated

Question: What about the “rescue of invasion by addition to oxamic acid-pretreated cancer cell CM” value [1, 3] of the same compound?
Answer: restored

Question: What about the “adherence of 4T1.2 cells to fibronectin with CM from activated macrophages” value (4T1.2 cells) of the same compound?
Answer: significantly increased

Question: And the “effect of Gpr132 deletion on triggered calcium mobilization” value (Gpr132)?
Answer: compromised

Question: What about the “number of migrated cancer cells with activated WT macrophages” value ([2]; 4T1.2 cells, 6 hrs, vs untreated WT macrophages) of the same compound?
Answer: significantly enhanced

Question: What about the “effects on cancer cell migration with Gpr132-KO macrophages” value ([2]; Gpr132 deletion in macrophages) of the same compound?
Answer: attenuated

Question: And the “rescue of migration by addition to oxamic acid-pretreated cancer cell CM” value [2, 3]?
Answer: restored

Source: patent publication US20210095293A1, “METHODS OF TREATING CANCERS WITH GPR132 INHIBITORS” (The Board of Regents of the University of Texas System, priority 2016, published 2021)
